Experiments:
[1] = Relative inhibition of rat kidney PDE2 and human platelet PDE 5
[2] = Relative inhibition of bovine heart PDE1 and human platelet PDE5
[3] = Relative inhibition of bovine retina PDE6 and human platelet PDE 5
[4] = molecular target: cGMP-specific 3',5'-cyclic phosphodiesterase (Homo sapiens, UniProt O76074); assay: Inhibition of phosphodiesterase 5 from human platelets
[5] = Relative inhibition of rat kidney PDE4 and human platelet PDE 5
[6] = molecular target: cGMP-dependent 3',5'-cyclic phosphodiesterase (Rattus norvegicus) (UniProt Q01062); assay: Inhibition of phosphodiesterase 2
Sequence of cGMP-dependent 3',5'-cyclic phosphodiesterase (Rattus norvegicus) (Q01062 whole entry, looked up): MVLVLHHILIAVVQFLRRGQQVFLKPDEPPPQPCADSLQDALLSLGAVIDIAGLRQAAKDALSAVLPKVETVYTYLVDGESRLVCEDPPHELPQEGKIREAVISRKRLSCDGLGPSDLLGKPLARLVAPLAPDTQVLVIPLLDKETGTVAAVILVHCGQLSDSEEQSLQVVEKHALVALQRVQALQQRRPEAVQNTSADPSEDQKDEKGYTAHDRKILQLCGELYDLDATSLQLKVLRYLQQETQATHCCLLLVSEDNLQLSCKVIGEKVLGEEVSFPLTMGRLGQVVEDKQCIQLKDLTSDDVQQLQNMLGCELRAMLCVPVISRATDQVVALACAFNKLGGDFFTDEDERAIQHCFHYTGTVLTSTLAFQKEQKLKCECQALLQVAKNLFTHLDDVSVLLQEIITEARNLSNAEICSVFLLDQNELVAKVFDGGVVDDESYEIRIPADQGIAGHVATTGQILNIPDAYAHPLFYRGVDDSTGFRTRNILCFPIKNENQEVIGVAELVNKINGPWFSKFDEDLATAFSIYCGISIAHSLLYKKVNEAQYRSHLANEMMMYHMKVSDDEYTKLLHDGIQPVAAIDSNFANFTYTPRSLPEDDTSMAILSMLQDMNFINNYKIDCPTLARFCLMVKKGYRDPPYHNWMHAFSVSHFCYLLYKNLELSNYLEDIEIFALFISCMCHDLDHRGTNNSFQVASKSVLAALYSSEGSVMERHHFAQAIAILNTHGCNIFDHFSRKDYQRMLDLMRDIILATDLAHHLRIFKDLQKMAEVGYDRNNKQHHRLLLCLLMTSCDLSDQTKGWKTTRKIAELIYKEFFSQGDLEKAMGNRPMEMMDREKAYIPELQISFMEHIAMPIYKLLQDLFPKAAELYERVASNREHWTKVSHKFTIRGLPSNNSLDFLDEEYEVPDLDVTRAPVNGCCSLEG

Phosphodiesterase 1 = Phosphodiesterase 1 (Bos taurus, UniProt Q01061+P14100); assay: Inhibition of phosphodiesterase 1 of bovine heart; type: protein assay
[7] = Inhibition of phosphodiesterase 4
Phosphodiesterase 3 = Phosphodiesterase 3 (Homo sapiens, UniProt Q14432+Q13370); assay: Inhibitory activity of compound against phosphodiesterase 3 was tested; type: protein assay
Phosphodiesterase 6 = assay: Inhibition of phosphodiesterase 6; type: protein assay

| Selectivity ratio [1] | Selectivity ratio [2] | Selectivity ratio [3] | IC50 [4] [nM] | Selectivity ratio [5] | IC50 [6] [nM] | IC50 (Phosphodiesterase 1) [nM] | IC50 [7] [nM] | IC50 (Phosphodiesterase 3) [nM] | IC50 (Phosphodiesterase 6) [nM] | SMILES |
| --- | --- | --- | --- | --- | --- | --- | --- | --- | --- | --- |
| 8600 | > 100000 | 23 | 0.48 | > 100000 |  |  |  |  |  | COc1ccc(CNc2c(CO)cnc3ccc(C#N)cc23)cc1Cl |
| > 100000 | > 100000 | 110 | 0.6 | > 100000 |  |  |  |  |  | CCOC(=O)c1cnc2c(CC)cc(C#N)cc2c1NCc1ccc(OC)c(Cl)c1 |
|  |  | 40 |  | 2200 |  |  |  |  |  | CCc1cc(C#N)cc2c(NCc3ccc(OC)c(Cl)c3)ccnc12 |
|  |  | 82 | 0.55 | 4500 |  |  |  |  |  | CCc1cc(C#N)cc2c(NCc3ccc(OC)c(Cl)c3)c(C(=O)NCc3ccccn3)cnc12 |
| > 100000 | > 1e+06 | 7800 | 0.05 |  |  |  |  |  |  | CCc1cc(C#N)cc2c(NCc3ccc(OC)c(Cl)c3)c(CO)cnc12 |
| > 100000 |  | 15 |  | 3800 |  |  |  |  |  | CCOC(=O)c1cnc2ccc(C#N)cc2c1NCc1ccc(OC)c(Cl)c1 |
| > 310 | > 310 | 125 | 160 | > 310 | > 50000 | > 50000 | > 50000 | > 50000 | 20000 | CCOC(=O)c1cnc2cc(C(F)(F)F)ccc2c1NCc1ccc(OC)c(Cl)c1 |
| > 100000 | 6400 | 29 | 1.4 | 3500 |  |  |  |  |  | COc1ccc(CNc2ccnc3ccc(C#N)cc23)cc1Cl |
| > 680 | > 680 | 75 | 73 | 247 |  |  |  |  |  | CCOC(=O)c1cnc2ccc(C(F)(F)F)cc2c1NCc1ccc(OC)c(Cl)c1 |
| > 100000 | > 100000 | 64 | 1.3 | 3100 |  |  |  |  |  | COc1ccc(CNc2c(C(=O)NCc3ccccn3)cnc3ccc(C#N)cc23)cc1Cl |
